Patent publication US20260317312A1, “ISOXAZOLIDINES AS RIPK1 INHIBITORS AND USE THEREOF” (GENZYME CORPORATION, priority 2023, published 2026)

Key:
[1] = biological target: T1, hRIPK1 (aa 1-375) fusion protein (Homo sapiens, UniProt Q13546); assay: Receptor-Interacting Protein Kinase 1 inhibition, ADP Glo assay (conversion of ATP to ADP due to autophosphorylation); format: biochemical; settings: ATP 50 μM, 30 min preincubation, 240 min incubation, room temperature, DMSO 1%
T1 construct: hRIPK1 (aa 1-375) fusion protein
T1 sequence (Q13546 1-375): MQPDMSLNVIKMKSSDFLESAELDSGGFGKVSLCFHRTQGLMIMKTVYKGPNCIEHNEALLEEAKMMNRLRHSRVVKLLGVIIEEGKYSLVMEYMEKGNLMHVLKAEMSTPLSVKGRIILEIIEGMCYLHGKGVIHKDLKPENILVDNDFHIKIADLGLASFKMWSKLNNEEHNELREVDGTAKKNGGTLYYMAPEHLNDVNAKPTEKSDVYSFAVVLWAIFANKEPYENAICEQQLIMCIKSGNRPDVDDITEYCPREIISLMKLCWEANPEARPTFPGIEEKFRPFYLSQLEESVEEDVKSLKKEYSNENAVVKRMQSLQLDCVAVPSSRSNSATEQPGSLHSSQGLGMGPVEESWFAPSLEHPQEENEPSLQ
Procedure, shortened: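 The readout was ADP-Glo luminescence after a 240 min rt autophosphorylation reaction with 50 μM ATP, following 30 min preincubation of 3.6 μg/ml hRIPK1 (aa 1-375) fusion with compound at 33300-1.69 nM final in 1% DMSO. Values came from Levenberg-Marquardt nonlinear fits.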

U937 cells = assay: Cellular assay in U937 cells to measure activity of RIPK1-inhibitors on cell death (necroptosis); format: cell-based; settings: Homo sapiens, U-937, TNFα/zVAD.fmk induced cell death (necroptosis), overnight (18 to 24 hrs), 37° C., MTS readout

Structure (SMILES) | IC50 [1] | IC50 (U937 cells)
CC1(C)OC(=O)N(c2ccc(F)c(OC[C@H]3CC[C@H](C(=O)N4OCC[C@H]4c4cc(F)cc(C#N)c4)CC3)c2)C1=O [Compound 79, trans-3-((S)-2-(4-((5-(5,5-dimethyl-2,4-dioxooxazolidin-3-yl)-2-fluorophenoxy)methyl)cyclohexane-1-carbonyl)isoxazolidin-3-yl)-5-fluorobenzonitrile] | 20 nM | 9 nM
CN1CC(=O)N(c2ccc(Cl)c(OC[C@H]3CC[C@H](C(=O)N4OCC[C@H]4c4cc(F)cc(C#N)c4)CC3)c2)C1=O [Compound 80, trans-3-((S)-2-(4-((2-chloro-5-(3-methyl-2,5-dioxoimidazolidin-1-yl)phenoxy)methyl)cyclohexane-1-carbonyl)isoxazolidin-3-yl)-5-fluorobenzonitrile] | 164 nM | 123 nM
CC1(C)OC(=O)N(c2ccc(F)c(O[C@H]3CC[C@@H](C(=O)N4OCC[C@H]4c4cc(F)cc(C#N)c4)CC3)c2)C1=O [Compound 81, cis-3-((S)-2-(4-(5-(5,5-dimethyl-2,4-dioxooxazolidin-3-yl)-2-fluorophenoxy)cyclohexane-1-carbonyl)isoxazolidin-3-yl)-5-fluorobenzonitrile] | 92 nM | 855 nM
N#Cc1cc(F)cc([C@@H]2CCON2C(=O)[C@H]2CC[C@@H](Oc3ccc(F)c(C#N)c3)CC2)c1 [Compound 82, cis-5-((4-((S)-3-(3-cyano-5-fluorophenyl)isoxazolidine-2-carbonyl)cyclohexyl)oxy)-2-fluorobenzonitrile] | 44 nM | 385 nM
N#Cc1cc(F)cc(OC[C@H]2CC[C@H](C(=O)N3OCC[C@H]3c3cncc(C#N)c3)CC2)c1 [Compound 83, trans-5-((S)-2-(4-((3-cyano-5-fluorophenoxy)methyl)cyclohexane-1-carbonyl)isoxazolidin-3-yl)nicotinonitrile] | 34 nM | 23 nM
O=C([C@H]1C[C@H](n2cnc3cc(F)ccc32)C1)N1OCC[C@H]1c1cccc(F)c1 [Compound 84, trans-(3-(5-fluoro-1H-benzo[d]imidazol-1-yl)cyclobutyl)((S)-3-(3-fluorophenyl)isoxazolidin-2-yl)methanone] | 257 nM | 428 nM
Cc1ccc(OC[C@H]2CC[C@H](C(=O)N3OCC[C@H]3c3cc(F)cc(C#N)c3)CC2)cc1C(N)=O [Compound 85, trans-5-((4-((S)-3-(3-cyano-5-fluorophenyl)isoxazolidine-2-carbonyl)cyclohexyl)methoxy)-2-methylbenzamide] | 28 nM | 27 nM
Cc1ccc(OC[C@H]2CC[C@H](C(=O)N3OCC[C@H]3c3cc(F)cc(F)c3)CC2)cc1C(N)=O [Compound 86, trans-5-((4-((S)-3-(3,5-difluorophenyl)isoxazolidine-2-carbonyl)cyclohexyl)methoxy)-2-methylbenzamide] | 22 nM | 10 nM
O=C([C@H]1C[C@@H](n2cnc3ccc(F)cc32)C1)N1OCC[C@H]1c1cc(F)cc(F)c1 [Compound 87, cis-((S)-3-(3,5-difluorophenyl)isoxazolidin-2-yl)(3-(6-fluoro-1H-benzo[d]imidazol-1-yl)cyclobutyl)methanone] | 89 nM | 551 nM
CN1CC(=O)N(c2ccc(Cl)c(OC[C@H]3CC[C@H](C(=O)N4OCC[C@H]4c4cncc(C#N)c4)CC3)c2)C1=O [Compound 88, trans-5-((S)-2-(4-((2-chloro-5-(3-methyl-2,5-dioxoimidazolidin-1-yl)phenoxy)methyl)cyclohexane-1-carbonyl)isoxazolidin-3-yl)nicotinonitrile] | 47 nM | 458 nM
Cn1ccn(-c2ccc(OC[C@H]3CC[C@H](C(=O)N4OCC[C@H]4c4cncc(C#N)c4)CC3)c(F)c2)c1=O [Compound 89, trans-5-((S)-2-(4-((2-fluoro-4-(3-methyl-2-oxo-2,3-dihydro-1H-imidazol-1-yl)phenoxy)methyl)cyclohexane-1-carbonyl)isoxazolidin-3-yl)nicotinonitrile] | 18 nM | 13 nM
Cc1cc(C)n(-c2ccc(OC[C@H]3CC[C@H](C(=O)N4OCC[C@H]4c4cncc(C#N)c4)CC3)c(F)c2)n1 [Compound 90, trans-5-((S)-2-(4-((4-(3,5-dimethyl-1H-pyrazol-1-yl)-2-fluorophenoxy)methyl)cyclohexane-1-carbonyl)isoxazolidin-3-yl)nicotinonitrile] | 21 nM | 23 nM
N#Cc1cc(F)cc([C@@H]2CCON2C(=O)[C@H]2CC[C@H](COc3cc(C#N)ccn3)CC2)c1 [Compound 91, trans-2-[[4-[(3S)-3-(3-cyano-5-fluoro-phenyl)isoxazolidine-2-carbonyl]cyclohexyl]methoxy]pyridine-4-carbonitrile] | 14 nM | 39 nM
CC1(C)OC(=O)N(c2ccc(F)c(OC[C@H]3CC[C@H](C(=O)N4OCC[C@H]4c4cncc(C#N)c4)CC3)c2)C1=O [Compound 92, trans-5-((S)-2-(4-((5-(5,5-dimethyl-2,4-dioxooxazolidin-3-yl)-2-fluorophenoxy)methyl)cyclohexane-1-carbonyl)isoxazolidin-3-yl)nicotinonitrile] | 42 nM | 229 nM
N#Cc1cc(F)cc([C@@H]2CCON2C(=O)[C@H]2CC[C@H](COc3ccnc(C#N)c3)CC2)c1 [Compound 93, trans-4-[[4-[(3S)-3-(3-cyano-5-fluoro-phenyl)isoxazolidine-2-carbonyl]cyclohexyl]methoxy]pyridine-2-carbonitrile] | 18 nM | 13 nM
N#Cc1cncc([C@@H]2CCON2C(=O)[C@H]2CC[C@H](COc3cc(C#N)ccn3)CC2)c1 [Compound 94, trans-5-((S)-2-(4-(((4-cyanopyridin-2-yl)oxy)methyl)cyclohexane-1-carbonyl)isoxazolidin-3-yl)nicotinonitrile] | 58 nM | 137 nM
N#Cc1ccc(OC[C@H]2CC[C@H](C(=O)N3OCC[C@H]3c3cncc(C#N)c3)CC2)nc1 [Compound 95, trans-5-((S)-2-(4-(((5-cyanopyridin-2-yl)oxy)methyl)cyclohexane-1-carbonyl)isoxazolidin-3-yl)nicotinonitrile] | 15 nM | 35 nM
O=C([C@H]1C[C@@H](n2ncc3cc(F)ccc32)C1)N1OCC[C@H]1c1cc(F)cc(F)c1 [Compound 96, cis-[(3S)-3-(3,5-difluorophenyl)isoxazolidin-2-yl]-[3-(5-fluoroindazol-1-yl)cyclobutyl]methanone] | 47 nM | 906 nM
O=C([C@H]1C[C@H](n2ncc3cc(F)ccc32)C1)N1OCC[C@H]1c1cc(F)cc(F)c1 [Compound 97, trans-[(3S)-3-(3,5-difluorophenyl)isoxazolidin-2-yl]-[3-(5-fluoroindazol-1-yl)cyclobutyl]methanone] | 38 nM | 151 nM
N#Cc1cc(F)cc([C@@H]2CCON2C(=O)[C@H]2C[C@H](n3ncc4cc(F)ccc43)C2)c1 [Compound 98, trans-3-fluoro-5-[(3S)-2-[3-(5-fluoroindazol-1-yl)cyclobutanecarbonyl]isoxazolidin-3-yl]benzonitrile] | 41 nM | 359 nM
N#Cc1cncc([C@@H]2CCON2C(=O)[C@H]2CC[C@H](COc3ccc(C(N)=O)cn3)CC2)c1 [Compound 99, trans-6-[[4-[(3S)-3-(5-cyano-3-pyridyl)isoxazolidine-2-carbonyl]cyclohexyl]methoxy]pyridine-3-carboxamide] | 70 nM | 209 nM
NC(=O)c1cccc(OC[C@H]2CC[C@H](C(=O)N3OCC[C@H]3c3cnccn3)CC2)c1 [Compound 100, trans-3-[[4-[(3S)-3-pyrazin-2-ylisoxazolidine-2-carbonyl]cyclohexyl]methoxy]benzamide] | 42 nM | 139 nM
NC(=O)c1cc(OC[C@H]2CC[C@H](C(=O)N3OCC[C@H]3c3cnccn3)CC2)ccc1F [Compound 101, trans-2-fluoro-5-[[4-[(3S)-3-pyrazin-2-ylisoxazolidine-2-carbonyl]cyclohexyl]methoxy]benzamide] | 40 nM | 140 nM
NC(=O)c1ccc(OC[C@H]2CC[C@H](C(=O)N3OCC[C@H]3c3cnccn3)CC2)nc1 [Compound 102, trans-6-[[4-[(3S)-3-pyrazin-2-ylisoxazolidine-2-carbonyl]cyclohexyl]methoxy]pyridine-3-carboxamide] | 47 nM | 257 nM
N#Cc1ccc(OC[C@H]2CC[C@H](C(=O)N3OCC[C@H]3c3cnccn3)CC2)nc1 [Compound 103, trans-6-[[4-[(3S)-3-pyrazin-2-ylisoxazolidine-2-carbonyl]cyclohexyl]methoxy]pyridine-3-carbonitrile] | 57 nM | 98 nM
N#Cc1cc(F)cc(OC[C@H]2CC[C@H](C(=O)N3OCC[C@H]3c3cnccn3)CC2)c1 [Compound 104, trans-3-fluoro-5-[[4-[(3S)-3-pyrazin-2-ylisoxazolidine-2-carbonyl]cyclohexyl]methoxy]benzonitrile] | 24 nM | 30 nM
